Experimental data from patent publication US12590118B2, “Salt and crystal form of steroid derivative regulator” (Shanghai Hansoh Biomedical Co., Ltd., priority 2019, dated 2026).

biological target: GABA-A receptor; experiment: 35S-TBPS binding assay (GABAA receptor binding ability assay); parameters: species or system Sprague-Dawley rat; conditions: rat cerebral cortex cell membrane, 5 μM GABA, 2 nM 35S-TBPS; read-out: IC50 on inhibiting the TBPS binding activity, 35S-TBPS bindng assay
Method: 1. The cerebral cortex of male Sprague-Dawley rat was isolated.
2. A pre-chilled 0.32 M sucrose solution (one tablet of protease inhibitor was added per 100 mL) was added to the cerebral cortex (the volume of sucrose solution was 10 times the volume of the cerebral cortex). The mixture was crushed with a 50 mL glass tissue homogenizer in batches and mixed well.
3. The mixture was centrifuged at 1,500 g, 4° C. for 10 minutes, and the supernatant was collected.
4. The mixture was centrifuged at 20,000 g, 4° C. for 30 minutes, and the supernatant was discarded.
5. The precipitate was resuspended with the pre-chilled phosphate buffer saline (PBS) (one tablet of protease inhibitor was added per 100 mL). An average of 4 mL of PBS was added per rat, and the mixture was mixed well with a glass tissue homogenizer.
6. The mixture was centrifuged at 10,000 g, 4° C. for 10 minutes, and the supernatant was discarded.
7. Steps 5 and 6 were repeated three times.
8. Finally, the precipitate was resuspended with 4 volumes of PBS. The resulting solution was dispensed, frozen in liquid nitrogen, and stored at −80° C.
9. The protein concentration was measured by the bicinchoninic acid (BCA) method.
1. 230 μL of PBS was added to each well of a well plate with 1.1 mL volume.
2. 60 μL of the cerebral cortex cell membrane (5 μg/μL) solution was added to each well, and the mixture was mixed well.
3. The test compound (3 μL per well) was added, and the plate was incubated at 25° C. for 5 minutes. The DMSO concentration was 1%. The initial compound concentration was […], and a
3-fold dilution in gradient was carried out to obtain a total of 8 gradients and 2 replicates. 1% DMSO was used as a negative control, and 10 μM P026-2 was used as a positive control.
4. GABA was added at a final concentration of 5 μM, and incubated at 25° C. for 5 minutes. 1 mM GABA solution was formulated, and 1.5 μL of the solution was added to each well.
5. 35S-TBPS was added at a final concentration of 2 nM. The concentration of isotope mother solution was 9.7 μM. After dilution with PBS for 100 times, 6 μL of the diluted isotope solution was added to each well.
6. The plate was incubated at 4° C. for 20 hours.
7. The FilterMate GF/C plate was pre-treated with 0.5% PEI, and incubated at 4° C. for 1 hour.
8. The FilterMate GF/C plate was washed with Universal Harvester twice, 50 mL PBS each time.
9. The reaction solution was transferred to the GF/C plate, and each well was washed 4 times with 900 μL of PBS.
10. The washed GF/C plate was placed at 55° C. and dried for 10 minutes.
11. 40 μL of scintillation solution was added to each well, and the CPM value was read with TopCount.
In the experiment, the CPM (counts per minute) value was read with TopCount. According to the readings of the High control (DMSO) and the Low control (10 μM of the positive compound) experimental groups, the % inhibition was calculated based on the following formula: % Inhibition=100×(CPMHigh control−CPMsample)/(CPMHigh control−CPMLow control)
The IC50 of the compound was calculated according to the following 4-parameter nonlinear logic formula: Y=Bottom+(Top−Bottom)/(1+10^((Log IC50−X)*HillSlope)),
wherein: • X represents the log of compound concentration, • Y represents the % Inhibition.
The effect of the compound of the present invention on the TBPS binding activity was determined by the above test, and the measured IC50 values are shown in Table 5.

SMILES | IC50 [nM]
C[C@@]1(O)CC[C@H]2[C@H](CC[C@@H]3[C@@H]2CC[C@@]2(C)[C@H]3[C@@H]3C[C@@H]3[C@@H]2C(=O)Cn2ccc(C(F)(F)F)n2)C1 [Example 4, 1-((2R,4aS,4bR,6aS,7S,7aS,8aR,8bR,8cR,10aR)-2-Hydroxy-2,6a-dimethyloctadecahydrocyclopropa[4,5]cyclopenta[1,2-a]phenanthren-7-yl)-2-(3-(trifluoromethyl)-1H-pyrazol-1-yl)ethan-1-one] | 3.1
C[C@@]1(O)CC[C@H]2[C@H](CC[C@@H]3[C@@H]2CC[C@@]2(C)[C@H]3[C@@H]3C[C@@H]3[C@@H]2C(=O)Cn2nccn2)C1 [Example 5, 1-((2R,4aS,4bR,6aS,7S,7aS,8aR,8bR,8cR,10aR)-2-Hydroxy-2,6a-dimethyloctadecahydrocyclopropa[4,5]cyclopenta[1,2-a]phenanthren-7-yl)-2-(2H-1,2,3-triazol-2-yl)ethan-1-one] | 14.7
C[C@@]1(O)CC[C@H]2[C@H](CC[C@@H]3[C@@H]2CC[C@@]2(C)[C@H]3[C@@H]3C[C@@H]3[C@@H]2C(=O)Cn2ncnn2)C1 [Example 7, 1-((2R,4aS,4bR,6aS,7S,7aS,8aR,8bR,8cR,10aR)-2-Hydroxy-2,6a-dimethyloctadecahydrocyclopropa[4,5]cyclopenta[1,2-a]phenanthren-7-yl)-2-(2H-tetrazol-2-yl)ethan-1-one] | 21.3
C[C@@]1(O)CC[C@H]2[C@H](CC[C@@H]3[C@@H]2CC[C@@]2(C)[C@H]3[C@@H]3C[C@@H]3[C@@H]2C(=O)Cn2cc(Cl)cn2)C1 [Example 14, 2-(4-Chloro-1H-pyrazol-1-yl)-1-((2R,4aS,4bR,6aS,7S,7aS,8aR,8bR,8cR,10aR)-2-hydroxy-2,6a-dimethyloctadecahydrocyclopropa[4,5]cyclopenta[1,2-a]phenanthren-7-yl)ethan-1-one] | 6.4
C[C@@]1(O)CC[C@H]2[C@H](CC[C@@H]3[C@@H]2CC[C@@]2(C)[C@H]3[C@@H]3C[C@@H]3[C@@H]2C(=O)Cn2cc(C#N)c(C3CC3)n2)C1 [Example 24, 3-Cyclopropyl-1-(2-((2R,4aS,4bR,6aS,7S,7aS,8aR,8bR,8cR,10aR)-2-hydroxy-2,6a-dimethyloctadecahydrocyclopropa[4,5]cyclopenta[1,2-a]phenanthren-7-yl)-2-oxoethyl)-1H-pyrazole-4-carbonitrile] | 18.3
C[C@@]1(O)CC[C@H]2[C@H](CC[C@@H]3[C@@H]2CC[C@@]2(C)[C@H]3[C@@H]3C[C@@H]3[C@@H]2C(=O)Cn2ncc(C#N)c2C2CC2)C1 [Example 25, 5-Cyclopropyl-1-(2-((2R,4aS,4bR,6aS,7S,7aS,8aR,8bR,8cR,10aR)-2-hydroxy-2,6a-dimethyloctadecahydrocyclopropa[4,5]cyclopenta[1,2-a]phenanthren-7-yl)-2-oxoethyl)-1H-pyrazole-4-carbonitrile] | 28.1
Cc1nn(CC(=O)[C@H]2[C@H]3C[C@H]3[C@H]3[C@@H]4CC[C@@H]5C[C@](C)(O)CC[C@@H]5[C@H]4CC[C@@]32C)cc1C#N [Example 28, 1-(2-((2R,4aS,4bR,6aS,7S,7aS,8aR,8bR,8cR,10aR)-2-Hydroxy-2,6a-dimethyloctadecahydrocyclopropa[4,5]cyclopenta[1,2-a]phenanthren-7-yl)-2-oxoethyl)-3-methyl-1H-pyrazole-4-carbonitrile] | 15.4
Cc1c(C#N)cnn1CC(=O)[C@H]1[C@H]2C[C@H]2[C@H]2[C@@H]3CC[C@@H]4C[C@](C)(O)CC[C@@H]4[C@H]3CC[C@@]21C [Example 29, 1-(2-((2R,4aS,4bR,6aS,7S,7aS,8aR,8bR,8cR,10aR)-2-Hydroxy-2,6a-dimethyloctadecahydrocyclopropa[4,5]cyclopenta[1,2-a]phenanthren-7-yl)-2-oxoethyl)-5-methyl-1H-pyrazole-4-carbonitrile] | 15.4
C[C@@]1(O)CC[C@H]2[C@H](CC[C@@H]3[C@@H]2CC[C@@]2(C)[C@H]3[C@@H]3C[C@@H]3[C@@H]2C(=O)Cn2cc(F)cn2)C1 [Example 30, 2-(4-Fluoro-1H-pyrazol-1-yl)-1-((2R,4aS,4bR,6aS,7S,7aS,8aR,8bR,8cR,10aR)-2-hydroxy-2,6a-dimethyloctadecahydrocyclopropa[4,5]cyclopenta[1,2-a]phenanthren-7-yl)ethan-1-one] | 28.7
CCOC(=O)c1cnn(CC(=O)[C@H]2[C@H]3C[C@H]3[C@H]3[C@@H]4CC[C@@H]5C[C@](C)(O)CC[C@@H]5[C@H]4CC[C@@]32C)c1 [Example 35, Ethyl 1-(2-((2R,4aS,4bR,6aS,7S,7aS,8aR,8bR,8cR,10aR)-2-hydroxy-2,6a-dimethyloctadecahydrocyclopropa[4,5]cyclopenta[1,2-a]phenanthren-7-yl)-2-oxoethyl)-1H-pyrazole-4-carboxylate] | 5
C[C@@H]1C[C@H](C(=O)Cn2cc(C(F)(F)F)cn2)[C@@]2(C)CC[C@H]3[C@@H](CC[C@@H]4C[C@](C)(O)CC[C@@H]43)[C@H]12 [Example 39, 1-((3R,5R,8R,9R,10S,13S,14S,15R,17S)-3-Hydroxy-3,13,15-trimethylhexadecahydro-1H-cyclopenta[a]phenanthren-17-yl)-2-(4-(trifluoromethyl)-11H-pyrazol-1-yl)ethan-1-one] | 6.2
C[C@@H]1C[C@H](C(=O)Cn2ccnn2)[C@@]2(C)CC[C@H]3[C@@H](CC[C@@H]4C[C@](C)(O)CC[C@@H]43)[C@H]12 [Example 42, 1-((3R,5R,8R,9R,10S,13S,14S,15R,17S)-3-Hydroxy-3,13,15-trimethylhexadecahydro-1H-cyclopenta[a]phenanthren-17-yl)-2-(1H-1,2,3-triazol-1-yl)ethan-1-one] | 24.6
Cc1nnn(CC(=O)[C@H]2C[C@@H](C)[C@H]3[C@@H]4CC[C@@H]5C[C@](C)(O)CC[C@@H]5[C@H]4CC[C@@]32C)n1 [Example 43, 1-((3R,5R,8R,9R,10S,13S,14S,15R,17S)-3-Hydroxy-3,13,15-trimethylhexadecahydro-1H-cyclopenta[a]phenanthren-17-yl)-2-(5-methyl-2H-tetrazol-2-yl)ethan-1-one] | 5.4
C[C@@H]1C[C@H](C(=O)Cn2ncnn2)[C@@]2(C)CC[C@H]3[C@@H](CC[C@@H]4C[C@](C)(O)CC[C@@H]43)[C@H]12 [Example 44, 1-((3R,5R,8R,9R,10S,13S,14S,15R,17S)-3-Hydroxy-3,13,15-trimethylhexadecahydro-1H-cyclopenta[a]phenanthren-17-yl)-2-(2H-tetrazol-2-yl)ethan-1-one] | 6.1
C[C@@H]1C[C@H](C(=O)Cn2cc(C#N)c(C3CC3)n2)[C@@]2(C)CC[C@H]3[C@@H](CC[C@@H]4C[C@](C)(O)CC[C@@H]43)[C@H]12 [Example 47, 3-Cyclopropyl-1-(2-((3R,5R,8R,9R,10S,13S,14S,15R,17S)-3-hydroxy-3,13,15-trimethylhexadecahydro-1H-cyclopenta[a]phenanthren-17-yl)-2-oxoethyl)-1H-pyrazole-4-carbonitrile] | 7.6
